According to PMC7770833, “Design, Synthesis, and Biological Evaluation of a Series of Oxazolone Carboxamides as a Novel Class of Acid Ceramidase Inhibitors” (Journal of Medicinal Chemistry, 2020):
Where a name gives a salt, the structure may show the parent alone.

Assays:
[1] = molecular target: T1, hAC (Homo sapiens, UniProt Q13510); assay: Fluorogenic hAC assay (hAC-enriched HEK293 lysate); assay type: biochemical; set-up: expressed in transfected cells; lysosome-enriched lysate; conditions: for hAC inhibition, result in words: concentrations tested 1 and 10 μM where stated; for hAC, IC50 (micromicrolar): supplementary CSV
T1 sequence (Q13510 22-395): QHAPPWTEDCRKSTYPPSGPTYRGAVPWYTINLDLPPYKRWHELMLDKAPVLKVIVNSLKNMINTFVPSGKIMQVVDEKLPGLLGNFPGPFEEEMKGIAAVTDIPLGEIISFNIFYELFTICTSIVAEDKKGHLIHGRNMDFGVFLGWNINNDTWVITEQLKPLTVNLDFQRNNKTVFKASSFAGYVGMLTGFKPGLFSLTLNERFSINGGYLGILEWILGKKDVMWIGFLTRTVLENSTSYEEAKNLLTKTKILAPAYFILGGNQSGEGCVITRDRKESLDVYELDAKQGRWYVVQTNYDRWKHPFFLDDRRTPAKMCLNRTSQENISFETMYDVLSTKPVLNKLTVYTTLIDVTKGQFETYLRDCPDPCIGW
From the text: HEK293 cells stably expressing hAC (HEK293-hAC) were generated in our laboratory using a protocol, as previously described.[30] Briefly, hAC (variant 1 coding sequence, NM_177924) cDNA was purchased from Open Biosystems (clone ID 3923451) and subcloned in the mammalian expression vector pCDNA3.1, containing the neomycin resistance gene. HEK293 cells were transfected with the hAC-pCDNA3.1 construct using a JetPEI reagent (Polyplus Transfection, Illkirch-Graffenstaden, France) and following the manufacturer’s instructions. A stable cell line was generated by selection with G418 (1 mg/mL), and cell clones were derived by limited dilution plating. HEK293-hAC were grown in Dulbecco’s modified Eagle medium (DMEM) containing 10% fetal bovine serum (FBS), 1% glutamine, 1 mM sodium pyruvate, and 500 μg/mL G418. Cells were harvested and pellets were stored at −80 °C until lysosomal-enriched lysate preparation. Cells were suspended in 20 mM Tris HCl (pH 7.5) with 0.32 M sucrose, sonicated, and centrifuged at 800 × g for 30 min at 4 °C. Supernatants were then centrifuged at 12 000 × g for 30 min at 4 °C. Pellets were re-suspended in PBS (pH 7.4) and subjected to three freeze–thaw cycles at −80 °C. The suspension was finally centrifuged at 105 000 × g for 1 h at 4 °C, and protein concentration was measured in the supernatant with a bicinchoninic acid based protein assay. This hAC-enriched preparation allowed us to further optimize the enzymatic assay and to use small amounts of lysate (2 μg/well) at the 5 μM substrate (Rbm14-12) around its KM (KM = 5.0 μM).
The assay was performed in Optiplate 96-wells black plates, with each reaction well containing a mixture of 25 mM NaOAc buffer (pH 4.5) and a fixed amount of protein (2 μg) in a volume of 85 μL. After 10 min of pre-incubation with the test compounds (diluted 20× from DMSO stock solutions at different concentrations), the fluorogenic probe was added (diluted 40× from EtOH stock solution, final concentration 5 μM). After 3 h incubation at 37 °C, reactions were stopped with 50 μL of MeOH and 100 μL of a 2.5 mg/mL NaIO4 fresh solution in 100 mM glycine/NaOH buffer (pH 10.6). The plates were further incubated for 2 h at 37 °C in the dark and fluorescence intensities were measured at excitation/emission wavelengths of 355/460 nm. Negative control samples consisted of the same incubation mixture in the absence of protein-enriched extracts. Data were plotted as a function of compound concentrations. IC50 values were calculated by nonlinear regression analysis using GraphPad Prism 5 (GraphPad Software Inc., CA, USA) applying a standard slope curve fitting. The reported IC50 values are the mean of at least three independent experiments performed in three technical replicates.

[2] = system: rat AC (rAC); conditions: cited from earlier work
[3] = system: hAC; conditions: cited from earlier work
[4] = molecular target: T1, hAC; assay: Michaelis–Menten analysis of hAC; assay type: biochemical; set-up: expressed in transfected cells; lysosome-enriched lysate
Procedure: Assay conditions for the kinetic studies were the same as those described for the fluorogenic hAC assay. The enzyme-enriched lysate (2 μg) was incubated with the following concentrations of substrate Rbm14-12: 0.25, 0.5, 1, 2.5, 5, 10, 12.5, 15 μM. Compound 12a was used at a final concentration of 25 and 100 nM. Initial velocities (V0) were determined and automatically fitted to the Michaelis–Menten equation to obtain kinetic parameters (KM and Vmax). The graph is representative of two independent experiments, each performed in three technical replicates. Graphs and data analysis were performed using GraphPad Prism 5 software (GraphPad Software Inc., CA, USA).

CCC(C)NC(=O)n1cc(-c2ccccc2)oc1=O (racemic) [Compound 12f, (±) 2-Oxo-5-phenyl-N-s-butyl-oxazole-3-carboxamide]
hAC inhibition, result in words [1]: not active up to 10 μM
hAC, IC50 (micromicrolar) [1]: not active up to 10 micromolar

CCCCCCNC(=O)n1cc(Cl)c(=O)[nH]c1=O [Compound 1a]
IC50 [2]: 67 nM

CCCCCCNC(=O)n1cc(C(F)(F)F)c(=O)[nH]c1=O [Compound 1b]
IC50 [2]: 12 nM

CCCCCCNC(=O)n1cc(F)c(=O)n(C(=O)OCC(C)C)c1=O [Compound 1c]
IC50 [2]: 16 nM

O=C(NCCCCc1ccccc1)n1cnc2ccccc21 [Compound 3a]
IC50 [3]: 2.5 nM

COc1nc2ccccc2n1C(=O)NCCCCc1ccccc1 [Compound 3b]
IC50 [3]: 13.9 nM

O=C(NCc1ccccc1)n1cnc2ccccc21 [Compound 3c]
IC50 [3]: 22.5 nM

Cc1ccc(CNC(=O)n2cnc3ccccc32)cc1 [Compound 3d]
IC50 [3]: 14.8 nM

O=C(NCCCCc1ccccc1)n1c(=O)oc2ccccc21 [Compound 4a]
IC50 [3]: 64 nM

O=C(NCCCCc1ccccc1)n1c(=O)oc2cc(-c3ccc(F)cc3)ccc21 [Compound 4b]
IC50 [3]: 79 nM

O=C(NCCCCc1ccccc1)n1c(=O)oc2cc(Cl)ccc21 [Compound 4c]
IC50 [3]: 33 nM

CC(C)CNC(=O)n1c(=O)oc2cc(C3CCN(C)CC3)ccc21 [Compound 4d]
IC50 [3]: 166 nM

O=C(NCCCCc1ccccc1)n1c(-c2ccccc2)coc1=O [Compound 8a, 2-Oxo-4-phenyl-N-(4-phenylbutyl)oxazole-3-carboxamide]
IC50 ([1]; fluorogenic substrate Rbm14-12 5 μM, pH 4.5, mean of at least three experiments, read-out: hAC IC50 (μM)±SD): 0.007 ± 0.001 µM

O=c1[nH]cc(-c2ccccc2)o1 [Compound 11a, 5-Phenyl-3H-oxazol-2-one]
hAC, IC50 (micromicrolar) [1]: not active up to 10 micromolar

O=C(NCCCCc1ccccc1)n1cc(-c2ccccc2)oc1=O [Compound 12a, 2-Oxo-5-phenyl-N-(4-phenylbutyl)oxazole-3-carboxamide]
hAC Vmax ([4]; 12a 25 nM): 18201 M/h
hAC Vmax ([4]; 12a 100 nM): 12016 M/h
effect on Michaelis–Menten constant (KM) ([4]; hAC-enriched lysates, in words): without influencing
effect on maximal catalytic velocity of AC (Vmax) ([4]; hAC-enriched lysates, in words): concentration-dependent reduction

COCCCNC(=O)n1cc(-c2ccccc2)oc1=O [Compound 12d, N-(3-Methoxypropyl)-2-oxo-5-phenyl-oxazole-3-carboxamide]
hAC inhibition, result in words [1]: complete loss in potency
hAC, IC50 (micromicrolar) [1]: not active up to 10 micromolar

O=C(Nc1ccccc1)n1cc(-c2ccccc2)oc1=O [Compound 12g, 2-Oxo-N,5-diphenyl-oxazole-3-carboxamide]
hAC, IC50 (micromicrolar) [1]: not active up to 10 micromolar

O=C(NCCCCc1ccccc1)n1cc(-c2ccc(F)cc2)oc1=O [Compound 12j, 5-(4-Fluorophenyl)-2-oxo-N-(4-phenylbutyl)oxazole-3-carboxamide]
hAC IC50 (μM)±SD ([1]; fluorogenic substrate Rbm14-12 5 μM, pH 4.5, mean of at least three experiments): submicromolar

CN(CCCCc1ccccc1)C(=O)n1cc(-c2ccccc2)oc1=O [Compound 13a, N-Methyl-2-oxo-5-phenyl-N-(4-phenylbutyl)oxazole-3-carboxamide]
hAC, IC50 (micromicrolar) [1]: not active up to 10 micromolar

O=C(OCCCCc1ccccc1)n1cc(-c2ccccc2)oc1=O [Compound 13b, 4-Phenylbutyl-2-oxo-5-phenyl-oxazole-3-carboxylate]
hAC, IC50 (micromicrolar) [1]: not active up to 10 micromolar

O=C(CCCCCc1ccccc1)n1cc(-c2ccccc2)oc1=O [Compound 13c, 5-Phenyl-3-(6-phenylhexanoyl)oxazol-2-one]
hAC, IC50 (micromicrolar) [1]: not active up to 10 micromolar

O=C(NCCCCc1ccccc1)N1C(=O)OC[C@@H]1c1ccccc1 [Compound 15a, (4S)-(+)-2-Oxo-4-phenyl-N-(4-phenylbutyl)oxazolidine-3-carboxamide]
hAC, IC50 (micromicrolar) [1]: not active up to 10 micromolar

O=C(NCCCCc1ccccc1)N1C(=O)OC[C@H]1c1ccccc1 [Compound 15b, (4R)-(−)-2-Oxo-4-phenyl-N-(4-phenylbutyl)oxazolidine-3-carboxamide]
hAC, IC50 (micromicrolar) [1]: not active up to 10 micromolar

O=C(NCCCCc1ccccc1)N1C[C@H](c2ccccc2)OC1=O [Compound 18a, (5S)-(−)-2-Oxo-5-phenyl-N-(4-phenylbutyl)oxazolidine-3-carboxamide]
hAC, IC50 (micromicrolar) [1]: not active up to 10 micromolar

O=C(NCCCCc1ccccc1)N1C[C@@H](c2ccccc2)OC1=O [Compound 18b, (5R)-(+)-2-Oxo-5-phenyl-N-(4-phenylbutyl)oxazolidine-3-carboxamide]
hAC, IC50 (micromicrolar) [1]: not active up to 10 micromolar

CC(C)CNC(=O)n1cc(-c2ccc(F)c(C3CCN(C)CC3)c2)oc1=O [Compound 25f, 5-[4-Fluoro-3-(1-methyl-4-piperidyl)phenyl]-N-isobutyl-2-oxo-oxazole-3-carboxamide]
hAC inhibition, result in words [1]: complete loss in potency
hAC, IC50 (micromicrolar) [1]: not active up to 10 micromolar

CN1CCC(c2cc(F)ccc2-c2c[nH]c(=O)o2)CC1 [Compound 31c, 5-[4-Fluoro-2-(1-methyl-4-piperidyl)phenyl]-3H-oxazol-2-one]
hAC, IC50 (micromicrolar) [1]: not active up to 10 micromolar

CC(C)CNC(=O)n1cc(-c2ccc(F)cc2C2CCN(C)CC2)oc1=O [Compound 32c, 5-[4-Fluoro-2-(1-methyl-4-piperidyl)phenyl]-N-isobutyl-2-oxo-oxazole-3-carboxamide Hydrochloride]
hAC inhibition, result in words [1]: complete loss in potency
hAC, IC50 (micromicrolar) [1]: not active up to 10 micromolar

CCCCCCNC(=O)n1cc(F)c(=O)[nH]c1=O [carmofur]
IC50 [2]: 29 nM
